In patent US9023789B2, “Amylin analogs and pharmaceutical compositions thereof” (Novo Nordisk A/S, priority 2012, dated 2015):
Where two headings read alike, the source gives them in different places. Numbered stars: 1 amine (or outer) side, 2 acyl side, 3 side chain; on linkers, the order of the positions; unused ones are H or OH. Bridge positions count the residues as written; N and C are the ends. Side chains are listed from the residue outwards. Peptide text beside a SMILES is read from it. * marks the point of attachment. C20 diacid = O=C(O)CCCCCCCCCCCCCCCCCCC(=O)*; γGlu = O=C(O)[C@H](CCC(=O)[*:2])N[*:1]

What was measured:
[1] = ASSAY (III) ThT fibrillation assay for physical stability; format: physicochemical
Method in brief: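 Formulations with 1 μM ThT, pH adjusted as required, incubated at 37 °C with 960 rpm orbital shaking; fluorescence (ex 444/em 485 nm) read every 20 min. Fibrillation reported as mean ThT fluorescence ± SD of 4–8 replicates at time points; polypeptide concentration measured by reverse-phase HPLC before and after, post-centrifugation.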

[2] = target: T1, rat amylin receptor (rat calcitonin receptor + rat RAMP 3) (Rattus norvegicus, UniProt P32214+Q9JJ73); test: ASSAY (VI) binding to the rat amylin receptor
T1 construct: expressed in transfected cells; host or cells: BHK tk'ts 13 (transient, FuGENE 6), membranes
T1 sequence (P32214 25-479 isoform P32214-2 limits assumed): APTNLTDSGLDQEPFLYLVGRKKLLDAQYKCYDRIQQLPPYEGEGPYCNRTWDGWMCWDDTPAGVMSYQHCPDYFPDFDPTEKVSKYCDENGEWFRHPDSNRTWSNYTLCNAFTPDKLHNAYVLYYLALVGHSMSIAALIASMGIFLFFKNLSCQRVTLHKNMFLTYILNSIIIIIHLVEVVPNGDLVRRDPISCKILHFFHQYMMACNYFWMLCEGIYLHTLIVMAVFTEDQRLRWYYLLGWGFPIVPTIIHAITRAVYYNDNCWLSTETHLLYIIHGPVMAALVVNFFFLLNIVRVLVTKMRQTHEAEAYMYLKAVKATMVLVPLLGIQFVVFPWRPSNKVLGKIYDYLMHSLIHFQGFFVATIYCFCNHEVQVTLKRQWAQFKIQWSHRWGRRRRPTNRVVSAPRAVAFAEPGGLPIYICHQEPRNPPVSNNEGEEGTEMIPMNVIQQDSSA
T1 sequence (Q9JJ73 23-147 partner): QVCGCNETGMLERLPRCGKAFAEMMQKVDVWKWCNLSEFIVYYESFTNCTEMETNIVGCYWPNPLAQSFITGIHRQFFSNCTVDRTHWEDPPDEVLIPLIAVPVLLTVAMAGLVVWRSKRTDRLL
Method in brief: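 Binding to the rat amylin receptor was determined with membrane preparations. The receptor was expressed by transiently transfecting BHK tk′ts 13 cells with rat calcitonin receptor, using FuGENE® 6 (Roche) according to the manufacturer's recommendations. Roughly 48 hours later the cells were harvested and their membranes isolated.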

[3] = Table 7, binding to rat amylin receptor, read-out: rAmylin-R bind IC50
[4] = Table 7, rat binding selectivity, rCTR IC50 / rAmylin-R IC50
[5] = Table 7a (preferred compounds), rat binding selectivity, rCTR IC50 / rAmylin-R IC50
[6] = ratio of rCTR bind IC50 to rAmylin-R bind IC50

| SMILES | ThT pH 4.0 lag time (h) [1] | IC50 [2, 3] | Ratio rCT/rAmylin binding [2, 4] | Ratio rCT/rAmylin binding [2, 5] | Ratio rCT/rAmylin binding [2, 6] | IC50 [2] |
| --- | --- | --- | --- | --- | --- | --- |
| CC[C@H](C)[C@H](NC(=O)[C@H](C)NC(=O)CNC(=O)[C@H](Cc1ccccc1)NC(=O)[C@H](CC(N)=O)NC(=O)[C@@H]1CCCN1C(=O)[C@H](CO)NC(=O)[C@H](CO)NC(=O)[C@H](Cc1c[nH]cn1)NC(=O)[C@H](CCCNC(=N)N)NC(=O)[C@H](CC(C)C)NC(=O)[C@H](Cc1ccccc1)NC(=O)[C@H](Cc1c[nH]cn1)NC(=O)[C@H](C)NC(=O)[C@H](CC(C)C)NC(=O)[C@H](CCCNC(=N)N)NC(=O)[C@H](CCC(N)=O)NC(=O)[C@@H](NC(=O)[C@H](C)NC(=O)[C@@H]1CSSC[C@H](NC(=O)[C@H](CCCNC(=N)N)NC(=O)CNC(=O)CC[C@H](NC(=O)CCCCCCCCCCCCCCCCCCC(=O)O)C(=O)O)C(=O)N[C@@H](CC(N)=O)C(=O)N[C@@H]([C@@H](C)O)C(=O)N[C@@H](C)C(=O)N[C@@H]([C@@H](C)O)C(=O)N1)[C@@H](C)O)C(=O)N1CCC[C@H]1C(=O)N[C@@H](CO)C(=O)N[C@@H](CO)C(=O)N[C@H](C(=O)N[C@@H](CC(N)=O)C(=O)N[C@H](C(=O)NCC(=O)N1CCC[C@H]1C(=O)N[C@@H](CC(N)=O)C(=O)N[C@H](C(=O)N[C@@H](Cc1ccc(O)cc1)C(N)=O)[C@@H](C)O)C(C)C)[C@@H](C)O [Example 102] ({C20 diacid-γGlu}-GRCNTATCATQRLAHFLRHSSPNFGAIPSSTNVGPNTY-NH2; disulfide 3-8 (inferred)) | 26 h | 0.674 nM | 97.7 | 97.7 | 97.7 | – |
| CC[C@H](C)[C@H](NC(=O)[C@H](C)NC(=O)CNC(=O)[C@H](Cc1ccccc1)NC(=O)[C@H](CC(N)=O)NC(=O)[C@@H]1CCCN1C(=O)[C@H](CO)NC(=O)[C@H](CO)NC(=O)[C@H](Cc1c[nH]cn1)NC(=O)[C@H](CCCNC(=N)N)NC(=O)[C@H](CC(C)C)NC(=O)[C@H](Cc1ccccc1)NC(=O)[C@H](C)NC(=O)[C@H](C)NC(=O)[C@H](CC(C)C)NC(=O)[C@H](CCCNC(=N)N)NC(=O)[C@H](CCC(N)=O)NC(=O)[C@@H](NC(=O)[C@H](C)NC(=O)[C@@H]1CSSC[C@H](NC(=O)[C@H](CCCNC(=N)N)NC(=O)CNC(=O)CC[C@H](NC(=O)CCCCCCCCCCCCCCCCCCC(=O)O)C(=O)O)C(=O)N[C@@H](CC(N)=O)C(=O)N[C@@H]([C@@H](C)O)C(=O)N[C@@H](C)C(=O)N[C@@H]([C@@H](C)O)C(=O)N1)[C@@H](C)O)C(=O)N1CCC[C@H]1C(=O)N[C@@H](CO)C(=O)N[C@@H](CO)C(=O)N[C@H](C(=O)N[C@@H](CC(N)=O)C(=O)N[C@H](C(=O)NCC(=O)N1CCC[C@H]1C(=O)N[C@@H](CC(N)=O)C(=O)N[C@H](C(=O)N[C@@H](Cc1ccc(O)cc1)C(N)=O)[C@@H](C)O)C(C)C)[C@@H](C)O [Example 103] ({C20 diacid-γGlu}-GRCNTATCATQRLAAFLRHSSPNFGAIPSSTNVGPNTY-NH2; disulfide 3-8) | 45 h | – | 129.1 | 129.1 | 129.1 | 0.436 nM |
| CC[C@H](C)[C@H](NC(=O)[C@H](C)NC(=O)CNC(=O)[C@H](Cc1ccccc1)NC(=O)[C@H](CC(N)=O)NC(=O)[C@@H]1CCCN1C(=O)[C@H](CO)NC(=O)[C@H](CO)NC(=O)[C@H](Cc1c[nH]cn1)NC(=O)[C@H](CCCNC(=N)N)NC(=O)[C@H](CC(C)C)NC(=O)[C@H](Cc1ccccc1)NC(=O)[C@H](CCC(=O)O)NC(=O)[C@H](C)NC(=O)[C@H](CC(C)C)NC(=O)[C@H](CCCNC(=N)N)NC(=O)[C@H](CCC(N)=O)NC(=O)[C@@H](NC(=O)[C@H](C)NC(=O)[C@@H]1CSSC[C@H](NC(=O)[C@@H](N)CCCCNC(=O)CC[C@H](NC(=O)CC[C@H](NC(=O)CCCCCCCCCCCCCCCCCCC(=O)O)C(=O)O)C(=O)O)C(=O)N[C@@H](CC(N)=O)C(=O)N[C@@H]([C@@H](C)O)C(=O)N[C@@H](C)C(=O)N[C@@H]([C@@H](C)O)C(=O)N1)[C@@H](C)O)C(=O)N1CCC[C@H]1C(=O)N[C@@H](CO)C(=O)N[C@@H](CO)C(=O)N[C@H](C(=O)N[C@@H](CC(N)=O)C(=O)N[C@H](C(=O)NCC(=O)N[C@@H](Cc1c[nH]cn1)C(=O)N[C@@H](CCC(=O)O)C(=O)N[C@H](C(=O)N[C@@H](Cc1ccc(O)cc1)C(N)=O)[C@@H](C)O)C(C)C)[C@@H](C)O [Example 104] (H-K([γGlu-γGlu-C20 diacid])CNTATCATQRLAEFLRHSSPNFGAIPSSTNVGHETY-NH2; disulfide 2-7; N-terminus assumed) | 45 h | 3.14 nM | 158.8 | 158.8 | 158.8 | – |
| CC[C@H](C)[C@H](NC(=O)[C@H](C)NC(=O)CNC(=O)[C@H](Cc1ccccc1)NC(=O)[C@H](CC(N)=O)NC(=O)[C@@H]1CCCN1C(=O)[C@H](CO)NC(=O)[C@H](CO)NC(=O)[C@H](Cc1c[nH]cn1)NC(=O)[C@H](CCCNC(=N)N)NC(=O)[C@H](CC(C)C)NC(=O)[C@H](Cc1ccccc1)NC(=O)[C@H](CCC(=O)O)NC(=O)[C@H](C)NC(=O)[C@H](CC(C)C)NC(=O)[C@H](CCCNC(=N)N)NC(=O)[C@H](CCC(N)=O)NC(=O)[C@@H](NC(=O)[C@H](C)NC(=O)[C@@H]1CSSC[C@H](NC(=O)[C@@H](N)CCCCNC(=O)CC[C@H](NC(=O)CC[C@H](NC(=O)CCCCCCCCCCCCCCCCCCC(=O)O)C(=O)O)C(=O)O)C(=O)N[C@@H](CC(N)=O)C(=O)N[C@@H]([C@@H](C)O)C(=O)N[C@@H](C)C(=O)N[C@@H]([C@@H](C)O)C(=O)N1)[C@@H](C)O)C(=O)N1CCC[C@H]1C(=O)N[C@@H](CO)C(=O)N[C@@H](CO)C(=O)N[C@H](C(=O)N[C@@H](CC(N)=O)C(=O)N[C@H](C(=O)NCC(=O)N[C@@H](CCCNC(=N)N)C(=O)N[C@@H](CCC(=O)O)C(=O)N[C@H](C(=O)N[C@@H](Cc1ccc(O)cc1)C(N)=O)[C@@H](C)O)C(C)C)[C@@H](C)O [Example 105] (H-K([γGlu-γGlu-C20 diacid])CNTATCATQRLAEFLRHSSPNFGAIPSSTNVGRETY-NH2; disulfide 2-7; N-terminus assumed) | 45 h | 2.86 nM | 158.2 | 158.2 | 158.2 | – |
